Measured values: patent US10016425B2, “Anti-ulcerative colitis compound” (KING SAUD UNIVERSITY, priority 2016, dated 2018)

How the values were obtained:
Swiss albino mice = conditions: mouse, in vivo
Method: (§1) The anti-ulcerative colitis compounds were tested on Swiss albino mice of both genders (26-30 g), as well as male Wistar rats (180-200 g). The animals were housed in standard polypropylene cages with wire mesh tops and maintained under standard conditions (temperature of 23±1.0° C., humidity of 55±10%, 12 h light/12 h dark cycle). They were fed with a standard pellet diet with water ad libitum and were allowed to adapt to the laboratory environment for one week before experimentation.
In order to determine the oral median lethal dose (LD50) of the anti-ulcerative colitis compound, the Swiss albino mice (in groups of six), received one of 50, 100, 500, or 1000 mg/kg doses of the target compound. Control animals received the pharmaceutical vehicle only and were kept under the same conditions. Signs of acute toxicity and the number of deaths per dose within 24 hours were recorded.

[1] = tested on: Acetic Acid-induced Colitis; experiment: Acetic acid-induced colitis in rats (prophylactic effect, macroscopic scoring); format: in vivo, male Wistar rats; conditions: for percent protection of control colitis: 50 mg/kg orally; for anti-ulcerative colitis activity (in words): administrated orally to rats, 50 mg/kg
Method: as §1
In order to examine the effect of the treatment compounds on ulcerative colitis, five groups of six rats were used. Two groups received compounds 5 and 6 at a dose of 50 mg/kg of body weight. Three other groups of animals were used, with two receiving water orally and the third receiving dexamesathone at a dose of 0.1 mg/kg orally, serving as control, control colitis and standard groups, respectively. All medications were administrated for five successive days. Two hour after the last dose, ulcerative colitis was induced by slowly infusion of 2 mL (4%, v/v) of acetic acid in saline into the colon through a catheter. Two days after the induction of colitis, the animals were sacrificed and colonic segments (8 cm in length and 3 cm proximal to the anus) were excised, opened and were used for macroscopic scoring.
To assess colonic lesions, the colon specimens were weighted and the wet weight/length ratio was calculated for all of the animals. The specimens were examined under a dissecting microscope and mucosal lesions were quantified by the scoring system (0-5): 0=no damage, 1=local edema and inflammation without ulcers; 2=one ulcer without inflammation; 3=one to two ulcers with inflammation and lesion diameter <1 cm; 4=more than two ulcers with lesion diameter 1-2 cm; 5=severe ulceration with lesion diameter >2 cm.
Ulcer area was measured using a plane glass square. Each cell on the glass square was 1 mm^2 in area and the number of cells were counted and the ulcer area was determined for each colon. Ulcer index was measured by summing the lesion score and the ulcer area for each colon specimen. All values were expressed as mean±S.D. Statistical analysis was performed using SPSS 10. Statistical significance of differences between two means was assessed by unpaired student's T-test. Differences at p<0.05, 0.01, and 0.001 were considered statistically significant.

[2] = tested on: Liver and Kidney Functions; experiment: Effect on liver and kidney functions in rats after 15 days oral dosing; format: in vivo, male Wistar rats; set-up: ALT / AST: dose or concentration left out as unconfirmed; conditions: oral 15 days; for Blood Urea / ALT / AST / Creatinine: mean ± SD, n = 10; for hepatotoxic manifestation / nephrotoxic manifestations: no significant difference to control at 0.05 level; for ALT / AST / Creatinine: serum
Method: as §1
The male Wister rats were divided into two equal groups each having ten rats. […] After the examination period, 6 hours after the last dose blood samples were collected from the orbital plexus of rats, samples were left to clot at room temperature for 30 minutes and then centrifuged at 1000 rpm for 20 minutes. The collected sera were used for determination of the activity of both […] (AST) and alanine aminotransferase (ALT) as liver markers. Additionally, levels of blood urea and serum creatinine were also estimated as kidney markers.

Structure (SMILES)	behavioral changes and/or mortality in mice (Swiss albino mice)	percent protection of control colitis [1]	anti-ulcerative colitis activity (in words) [1]	Blood Urea [2]	hepatotoxic manifestation [2]	nephrotoxic manifestations [2]	ALT [2]	AST [2]	Creatinine [2]	percent protection ([1]; 0.1 mg/kg orally)
COc1cc(/C=N/n2c(-c3ccc(C)cc3)nc3ccccc3c2=O)ccc1O [Compound 5, 3-[(4-hydroxy-3-methoxy-benzylidene)-amino]-2-p-tolyl-3H-quinazolin-4-one]	did not produce any behavioral changes and/or mortality	51.2%	potent anti-ulcerative colitis activity	65.50 ± 1.9 mg/dL	do not result in hepatotoxic manifestation	no apparent nephrotoxic manifestations	38.67 ± 0.22 U/l	63.23 ± 0.39 U/l	0.85 ± 0.02 mg/dL	–
COc1cc(/C=N/n2c(-c3ccc(C)cc3)nc3ccccc3c2=O)cc(OC)c1OC [Compound 6, 2-p-tolyl-3-[3,4,5-trimethoxy-benzylidene-amino]-3H-quinazolin-4-one]	did not produce any behavioral changes and/or mortality	61.8%	potent anti-ulcerative colitis activity	65.50 ± 1.9 mg/dL	do not result in hepatotoxic manifestation	no apparent nephrotoxic manifestations	38.67 ± 0.22 U/l	63.23 ± 0.39 U/l	0.85 ± 0.02 mg/dL	–
C[C@@H]1C[C@H]2[C@@H]3CCC4=CC(=O)C=C[C@]4(C)[C@@]3(F)[C@@H](O)C[C@]2(C)[C@@]1(O)C(=O)CO [Dexamethasone, reference compound]	–	–	–	–	–	–	–	–	–	72.2%
